Reference: US20250188078A1, “SMALL MOLECULE INHIBITORS OF THE CRL4 UBIQUITIN LIGASE” (Cornell University, priority 2022, published 2025)

How the values were obtained:
[1] = molecular target: CUL4A-DDB1-BPB interaction (Homo sapiens (Human), UniProt Q16531); test: AlphaLISA in vitro binding assay, CUL4A and DDB1-BPB binding; conditions: inhibition of CUL4A and DDB1-BPB binding
Text: AlphaLISA IC50 (see Table 1, column 4) means the half maximal inhibitory concentration of compound that inhibits CUL4A and DDB1-BPB binding. Our lab established and optimized 384 well-based AlphaLISA in vitro binding assay for testing small molecule inhibitory activity. Small molecule libraries were screened for compounds that disrupt CUL4A-DDB1-BPB interaction using AlphaScreen detection beads (PerkinElmer, #AL112C and #6765300) following the manufacturer's protocol (https://www.perkinelmer.com/PDFs/downloads/GDE-Alphatech.pdf, hereby incorporated by reference in its entirety for all purposes). The 384-well assay plates (Greiner Bio-one, #781075) were read in Synergy Neo2 Hybrid Multi-Mode Reader (BioTek). The IC50 was calculated by Prism 8 XY analysis nonlinear regression (curve fit-Log(inhibitor) vs response).

[2] = tested on: UV-induced CUL4-dependent DDB2 degradation in MEF-F-DDB2 cells; test: Cell-based assay for inhibition of UV-induced CUL4-dependent DDB2 degradation; design: key: (+) means that the normalized DDB2/α-tubulin ratio is higher in the compound treated sample than DMSO treated sample; (−) means that no change happens between compound treated sample with control sample; conditions: DDB2/α-tubulin by Western blot
Description: Cell-based assay for inhibition of UV-induced CUL4-dependent DDB2 degradation by small molecule CUL4 inhibitors (see Table 1, column 5). Briefly, MEF-F-DDB2 cells were seeded in 6-well plates. DMSO or indicated concentrations of compounds were added to MEF-F-DDB2 cells growing in serum-free medium. MEF-F-DDB2 cells were washed once with PBS and subsequently irradiated with a Philips TUV lamp (predominantly 254 nm) at a dose rate of 0.2 W/m^2. DMSO or compounds were added to MEF-F-DDB2 cells, and then cells were harvested. The cells were lysed, and equal amounts of proteins were resolved on SDS-PAGE gel and Flag-DDB2 levels were detected using anti-DDB2 (D4C4) rabbit antibody (Cell signaling, #5416S). α-tubulin (Proteintech, #66031-1-Ig) was used as an internal loading control. (+) means that the normalized DDB2/α-tubulin ratio is higher in the compound treated sample than DMSO treated sample. (−) means that no change happens between compound treated sample with control sample.

[3] = tested on: CUL4A^high MDA-MB-468 breast cancer cells; test: Cell killing in CUL4-high MDA-MB-468 cells (CellTiter Glo); format: cell-based; conditions: Homo sapiens, 192 h; MDA-MB-468 cells, 8 days treatment; read-out: EC50 CUL4-High Cells (cell killing)
Description: EC50 refers to concentration of compound that induces 50% killing of CUL4A^high MDA-MB-468 cells (see Table 1, column 6). CUL4A^high MDA-MB-468 breast cancer cells were seeded in 96 well plates. After 24 hours, cells were treated with DMSO or compounds. Change fresh medium and compounds. After 8 days treatment, cell viability was examined by using CellTiter Glo kit (Promega #7570) following the manufacturer's guidelines (https://www.promega.com/-/media/files/resources/protocols/technicalbulletins/0/celltiter-glo-luminescent-cell-viability-assay protocol.pdf?rev=0d95c232094b41daa06d0c110d1d916f&sc_lang=en, hereby incorporated by reference in its entirety for all purposes). EC50 concentration was calculated by Prism 8 XY analysis nonlinear regression (curve fit-Log(inhibitor) vs response). Lower EC50 indicates high cell killing potential in CUL4^high MDA-MB-468 cells.
(§1) CUL4A^high MDA-MB-468, CUL4^low (T47D), and MCF7 breast cancer cells were seeded in 96 well plates separately. Cells were treated with DMSO, or from 0 to 20 μM compound respectively. Replace with fresh medium and compounds every 48 hours. After 8 days treatment, cell viability was examined by CellTiter Glo kit (Promega #7570). First, transfer the appropriate volume (10 ml for Cat. #G7570) of CellTiter-Glo® Buffer into the amber bottle containing CellTiter-Glo® Substrate to reconstitute the lyophilized enzyme/substrate mixture. This forms the CellTiter-Glo® Reagent. Second, add CellTiter-Glo® Reagent in an equal volume (100 μl per well for 96-well plates) to all wells. Mix contents for 2 minutes on an orbital shaker to induce cell lysis. Incubate at room temperature for 15 minutes to stabilize luminescent signal. Then record luminescence. EC50 concentration was calculated by Prism 8 XY analysis nonlinear regression (curve fit-Log(inhibitor) vs response).

[4] = tested on: CUL4A^low T47D breast cancer cells; test: Cell killing in CUL4-low T47D cells (CellTiter Glo); format: cell-based; conditions: Homo sapiens, 192 h; T47D cells, 8 days treatment; read-out: EC50 CUL4-Low Cells (cell killing)
Description: EC50 indicates compound concentration can cause 50% cell killing in CUL4° ^w T47D cells (see Table 1, column 7). CUL4A^low T47D breast cancer cells were seeded in 96 well plate. […] Change fresh medium and compounds every 48 hours. After 8 days treatment, cell viability was examined by using CellTiter Glo kit (Promega #7570) following the manufacturer's guidelines (https://www.promega.com/-/media/files/resources/protocols/technical-bulletins/0/celltiter-glo-luminescent-cell-viability-assay-protocol.pdf?rev=0d95c232094b41daa06d0c110d1d916f&sc_lang=en, hereby incorporated by reference in its entirety for all purposes). EC50 concentration was calculated by Prism 8 XY analysis nonlinear regression (curve fit-Log(inhibitor) vs response). EC50 indicates cell killing potential in CUL4 low T47D cell line and the EC50 difference between CUL4^high and CUL4^low cells indicates the small molecule cause specific cell killing.
as §1, with “Cells were treated with DMSO, or from 0 to 20 μM compound respectively.” left out

[5] = Dynamic light scattering (DLS) solubility assay; format: physicochemical; conditions: normalized intensity ratio of 25 μM compound vs DMSO, in PBS
Description: Dynamic light scattering (DLS) (see Table 1, column 3) is a tool for studying the diffusion behavior of macromolecules in solution. To profile compound solubility, DLS assay was developed for measuring aggregation of small molecule compounds. Compound stock solution was prepared in DMSO. Dilution series were made for each compound in DMSO to ensure a final 1× assay concentration range of 200 μM to 0.78 μM. For example, if the final DMSO concentration was 1%, compounds were prepared at 100× concentrations ranging from […] to 78 μM. Dilute compounds in PBS solution to final concentration. Place 60 μl/well in 96 well plates and 3 replicates for each sample. Data were collected using a DynaPro Plate Reader III (WYATT Technologies, Inc., USA). The instrument was adjusted to measure the optimal light scattering intensity according to the manufacturer's instructions. […] The ratio over 2 means (−) insoluble. The ratio below 2 means (+) soluble and around 2 means (+/−).

CUL4A-DDB1-BPB interaction, sequence (Q16531 403-706): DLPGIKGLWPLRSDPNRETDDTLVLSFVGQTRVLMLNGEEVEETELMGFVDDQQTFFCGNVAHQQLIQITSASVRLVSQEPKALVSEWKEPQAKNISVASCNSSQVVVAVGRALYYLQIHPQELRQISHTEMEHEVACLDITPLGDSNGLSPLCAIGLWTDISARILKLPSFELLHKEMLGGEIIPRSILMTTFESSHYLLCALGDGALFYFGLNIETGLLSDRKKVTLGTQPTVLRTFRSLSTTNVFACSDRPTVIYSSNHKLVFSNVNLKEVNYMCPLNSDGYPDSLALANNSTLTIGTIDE

| Compound | IC50 [1] [µM] | Degradation Inhibition (inhibition of UV-induced DDB2 degradation) [2] | EC50 [3] [µM] | EC50 [4] [µM] | Solubility (DLS Assay) [5] | AlphaLisa IC50 [1] |
| --- | --- | --- | --- | --- | --- | --- |
| CN(c1ccc(-c2nc(C(=O)O)cc3c2[nH]c2c(F)cccc23)cc1)S(=O)(=O)c1ccccc1 [PA1-4, 8-fluoro-1-(4-(N-methylphenylsulfonamido)phenyl)-9H-pyrido[3,4-b]indole-3-carboxylic acid] | 8.88 | − | 6.9 | 10.9 |  |  |
| O=C(O)c1cc2c([nH]c3cc(F)ccc32)c(-c2ccc(OCc3ccccc3)cc2)n1 [PA1-11, 1-(4-benzyloxyphenyl)-7-fluoro-9H-pyrido[3,4-b]indole-3-carboxylic acid] | 5.84 | − | 9.9 |  | -(insoluble) |  |
| CN(c1ccc(-c2nc(C(=O)O)cc3c2[nH]c2cc(F)ccc23)c(F)c1)S(=O)(=O)c1ccccc1 [PA1-12, 1-[4-[benzenesulfonyl(methyl)amino]-2-fluoro-phenyl]-7-fluoro-9H-pyrido[3,4-b]indole-3-carboxylic acid] | 0.75 | + | 7.37 |  | -(insoluble) |  |
| CN1CCN(S(=O)(=O)N(C)c2ccc(-c3nc(C(=O)O)cc4c3[nH]c3cc(F)ccc34)cc2)CC1 [PA1-13A-3, 1-(4-(N,4-dimethylpiperazine-1-sulfonamido)phenyl)-7-fluoro-9H-pyrido[3,4-b]indole-3-carboxylic acid] | 0.45 | − | 7.25 |  | -(insoluble) |  |
| CN(c1ccc(-c2nc(C(=O)O)cc3c2[nH]c2ccc(F)cc23)cc1)S(=O)(=O)c1ccc(Br)cc1 [PA2-4, 1-[4-[(4-bromophenyl)sulfonyl-methyl-amino]phenyl]-6-fluoro-9H-pyrido[3,4-b]indole-3-carboxylic acid] | 0.75 | + | 4.49 | > 100 |  |  |
| COC(=O)c1ccc(-c2nc(C(=O)O)cc3c2[nH]c2ccccc23)cc1 [PA20, 1-(4-methoxycarbonylphenyl)-9H-pyrido[3,4-b]indole-3-carboxylic acid] | 2.09 ± 1.26 | + | 91.3 | > 100 |  |  |
| N#Cc1cc2c([nH]c3ccccc32)c(-c2ccc([N+](=O)[O-])cc2)n1 [PA42, 1-(4-nitrophenyl)-9H-pyrido[3,4-b]indole-3-carbonitrile] |  |  | 73.1 | > 100 |  | Neg |
| CS(=O)(=O)Nc1ccc(-c2nc(C(=O)O)cc3c2[nH]c2ccccc23)cc1 [PA48, 1-[4-(methanesulfonamido)phenyl]-9H-pyrido[3,4-b]indole-3-carboxylic acid] | 1.26 ± 0.45 | + | 84.1 | > 100 |  |  |
| CS(=O)(=O)Oc1ccc(-c2nc(C(=O)O)cc3c2[nH]c2ccccc23)cc1 [PA53, 1-(4-methylsulfonyloxyphenyl)-9H-pyrido[3,4-b]indole-3-carboxylic acid] | 1.31 ± 0.24 |  | 27.5 | 69.5 |  |  |
| CS(=O)(=O)NC(=O)c1cc2c([nH]c3ccccc32)c(-c2ccc(S(C)(=O)=O)cc2)n1 [PA55] | 11.1 ± 2.71 | − | 30.7 | 53.8 |  |  |
| O=C(O)c1cc2c([nH]c3ccccc32)c(-c2ccc(S(=O)(=O)Cc3ccccc3)cc2)n1 [PA67, 1-(4-benzylsulfonylphenyl)-9H-pyrido[3,4-b]indole-3-carboxylic acid] | 1.22 ± 0.35 |  | 53.8 | > 100 |  |  |
| CN(c1ccc(-c2nc(C(=O)O)cc3c2[nH]c2ccccc23)cc1)S(C)(=O)=O [PA75, 1-[4-[methyl(methylsulfonyl)amino]phenyl]-9H-pyrido[3,4-b]indole-3-carboxylic acid] | 1.39 ± 0.43 |  | 38.7 | 64 |  |  |
